Measurements published in ChEMBL document CHEMBL5634141 (Eur J Med Chem, 2023).
Activity calls are given as the source filed them. The rule behind the calls is not given here.

Tests used:
[1] = tested on: NCI-H358; experiment: Synergistic antiproliferative activity against human NCI-H358 cells expressing KRAS G12C mutant assessed as combination index at 30 nM incubated for 72 hrs in presence of MK-2206 by CCK-8 assay; format: functional
[2] = tested on: MIA PaCa-2; experiment: Inhibition of colony formation in human MIA PaCa-2 cells expressing KRAS G12C mutant assessed as reduction in cell number at 30 nM incubated for 14 days in presence of AZD4573 by crystal violet staining based analysis; format: functional; conditions: time 14.0 day
[3] = Half life in ICR mouse at 2 mg/kg, iv measured after 24 hrs by LC-MS/MS analysis; format: ADME, organism-based; conditions: in vivo
[4] = tested on: NCI-H358; experiment: Antiproliferative activity against human NCI-H358 cells expressing KRAS G12C mutant assessed as reduction of cell growth by measuring fold decrease in IC50 incubated for 72 hrs in presence of SHP099 by CCK-8 assay; format: functional
[5] = tested on: von Hippel-Lindau disease tumor suppressor/GTPase KRas (Homo sapiens), P01116+P40337 [G12C]; experiment: PROTAC activity at VHL/KRAS G12C mutant in human MIA PaCa-2 cells assessed as induction of protein degradation at 300 nM incubated for 24 hrs by Western blotting analysis relative to control; format: cell-based
[6] = tested on: von Hippel-Lindau disease tumor suppressor/GTPase KRas (Homo sapiens), P01116+P40337 [G12C]; experiment: PROTAC activity at VHL/KRAS G12C mutant in human MIA PaCa-2 cells assessed as induction of protein degradation at 100 nM incubated for 48 hrs followed by compound washout and measured after 48 hrs by Western blotting analysis; format: cell-based
[7] = tested on: MIA PaCa-2; experiment: Induction of apoptosis in human MIA PaCa-2 cells assessed as necrotic cells at 100 nM incubated for 48 hrs by Annexin V-FITC staining based flow cytometry analysis (reference value: 1.25 %); format: functional
[8] = tested on: MIA PaCa-2; experiment: Antiproliferative activity against human MIA PaCa-2 cells expressing KRAS G12C mutant assessed as reduction of cell growth by measuring fold decrease in IC50 incubated for 72 hrs in presence of SHP099 by CCK-8 assay; format: functional
[9] = tested on: MIA PaCa-2; experiment: Inhibition of colony formation in human MIA PaCa-2 cells expressing KRAS G12C mutant assessed as reduction in cell number at 30 nM incubated for 14 days in presence of SHP099 by crystal violet staining based analysis; format: functional; conditions: time 14.0 day
[10] = tested on: Calu-1; experiment: Antiproliferative activity against human Calu-1 cells expressing KRAS G12C mutant assessed as relative cell viability at 30 nM incubated for 72 hrs in presence of naporafenib by CCK-8 assay; format: functional; conditions: read-out: Activity
[11] = tested on: MIA PaCa-2; experiment: Antitumor activity against human MIA PaCa-2 cells xenografted in BALB/c nude mouse assessed as reduction in number of tumor foci at 10 to 30 mg/kg, ip administered for 16 days by hematoxylin and eosin staining based analysis; format: functional, organism-based; conditions: dose 10-30 mg/kg, time 16.0 day
[12] = tested on: von Hippel-Lindau disease tumor suppressor/GTPase KRas (Homo sapiens), P01116+P40337 [G12C]; experiment: PROTAC activity at VHL/KRAS G12C mutant in human NCI-H358 cells assessed as induction of protein degradation at 100 nM incubated for 48 hrs by Western blotting analysis relative to control; format: cell-based
[13] = tested on: MIA PaCa-2; experiment: Antiproliferative activity against human MIA PaCa-2 cells expressing KRAS G12C mutant assessed as relative cell viability at 30 nM incubated for 72 hrs in presence of selumetinib by CCK-8 assay; format: functional; conditions: read-out: Activity
[14] = tested on: MIA PaCa-2; experiment: Induction of apoptosis in human MIA PaCa-2 cells assessed as viable cells at 30 nM incubated for 48 hrs by Annexin V-FITC staining based flow cytometry analysis (reference value: 91.5 %); format: functional; conditions: read-out: Activity
[15] = Half life in ICR mouse at 30 mg/kg, ip measured after 24 hrs by LC-MS/MS analysis; format: ADME, organism-based; conditions: in vivo
[16] = tested on: von Hippel-Lindau disease tumor suppressor/GTPase KRas (Homo sapiens), P01116+P40337 [G12C]; experiment: PROTAC activity at VHL/KRAS G12C mutant in human MIA PaCa-2 cells assessed as induction of protein degradation at 100 nM incubated for 48 hrs by Western blotting analysis relative to control; format: cell-based
[17] = Tmax in ICR mouse at 30 mg/kg, ip measured after 24 hrs by LC-MS/MS analysis; format: ADME, organism-based; conditions: in vivo
[18] = tested on: von Hippel-Lindau disease tumor suppressor/GTPase KRas (Homo sapiens), P01116+P40337 [G12C]; experiment: PROTAC activity at VHL/KRAS G12C mutant in human MIA PaCa-2 cells assessed as induction of protein degradation at 100 nM incubated for 48 hrs followed by compound washout by Western blotting analysis; format: cell-based
[19] = tested on: SW837; experiment: Antiproliferative activity against human SW837 cells expressing KRAS G12C mutant assessed as relative cell viability at 30 nM incubated for 72 hrs by CCK-8 assay; format: functional; conditions: read-out: Activity
[20] = tested on: MIA PaCa-2; experiment: Antiproliferative activity against human MIA PaCa-2 cells expressing KRAS G12C mutant assessed as relative cell viability at 30 nM incubated for 72 hrs by CCK-8 assay; format: functional; conditions: read-out: Activity
[21] = Toxicity in BALB/c nude mouse xenografted with human MIA PaCa-2 cells at 10 to 30 mg/kg, ip measured after 16 days; format: organism-based; conditions: in vivo, 384 h, dose 10-30 mg/kg, time 16 day
[22] = tested on: NCI-H358; experiment: Induction of apoptosis in human NCI-H358 cells assessed as early apoptotic cells at 100 nM incubated for 48 hrs by Annexin V-FITC staining based flow cytometry analysis (reference value: 1.60 %); format: functional
[23] = tested on: Mus musculus; experiment: In vivo PROTAC activity at VHL/KRAS G12C mutant in BALB/c nude mouse xenografted with human MIA PaCa-2 cells assessed as decrease in KRAS level at 10 to 30 mg/kg, ip administered for 16 days by Western blot analysis; format: functional, organism-based; conditions: dose 10-30 mg/kg, time 16.0 day
[24] = Downregulation of KRAS G12C mutant expression in human NCI-H358 cells assessed as log2 of fold change at 200 nM incubated for 48 hrs by MS-based proteomic analysis; format: functional
[25] = tested on: NCI-H23; experiment: Antiproliferative activity against human NCI-H23 cells expressing KRAS G12C mutant assessed as relative cell viability at 30 nM incubated for 72 hrs by CCK-8 assay; format: functional; conditions: read-out: Activity
[26] = tested on: MIA PaCa-2; experiment: Induction of apoptosis in human MIA PaCa-2 cells assessed as necrotic cells at 30 nM incubated for 48 hrs by Annexin V-FITC staining based flow cytometry analysis (reference value: 1.25 %); format: functional
[27] = tested on: NCI-H358; experiment: Synergistic antiproliferative activity against human NCI-H358 cells expressing KRAS G12C mutant assessed as combination index incubated for 72 hrs in presence of AZD4573 by CCK-8 assay; format: functional
[28] = tested on: NCI-H23; experiment: Antiproliferative activity against human NCI-H23 cells expressing KRAS G12C mutant assessed as relative cell viability at 30 nM incubated for 72 hrs in presence of crizotinib by CCK-8 assay; format: functional; conditions: read-out: Activity
[29] = tested on: von Hippel-Lindau disease tumor suppressor/GTPase KRas (Homo sapiens), P01116+P40337 [G12C]; experiment: PROTAC activity at VHL/KRAS G12C mutant in human MIA PaCa-2 cells assessed as induction of protein degradation by measuring maximal efficacy by Western blotting analysis relative to control; format: cell-based
[30] = Toxicity in ICR mouse assessed as side effects at 30 mg/kg, ip measured after 24 hrs; format: organism-based; conditions: in vivo
[31] = Cmax in ICR mouse at 2 mg/kg, iv measured after 24 hrs by LC-MS/MS analysis; format: ADME, organism-based; conditions: in vivo
[32] = tested on: MIA PaCa-2; experiment: Induction of apoptosis in human MIA PaCa-2 cells assessed as late apoptotic cells at 30 nM incubated for 48 hrs by Annexin V-FITC staining based flow cytometry analysis (reference value: 5.69 %); format: functional

## C=CC(=O)N1CCN(c2nc(=O)n(-c3c(C)ccnc3C(C)C)c3nc(-c4c(F)cccc4OCC4CCN(CCCC(=O)N[C@H](C(=O)N5C[C@H](O)C[C@H]5C(=O)NCc5ccc(-c6scnc6C)cc5)C(C)(C)C)CC4)c(F)cc23)[C@@H](C)C1
[1]
  CI: <1
[2]
  inhibition: Active
[3]
  t1/2: 0.876 h
[4]
  fold change (FC): ~4
[5]
  Activity: 100%
[6]
  Activity: inactive
[7]
  Activity: 4.09%
[8]
  fold change (FC): ~4
[9]
  inhibition: Active
[10]
  viability at 0.03 µM: 0.44%
[11]
  Activity: Active
[12]
  Activity: 100%
[13]
  viability at 0.03 µM: 0.1%
[14]
  viability at 0.03 µM: 88.8%
[15]
  half-life: 3.87 h
[16]
  Activity: 100%
[17]
  Tmax: 1.17 h
[18]
  Activity: Active
[19]
  viability at 0.03 µM: 0.77%
[20]
  viability at 0.03 µM: 0.71%
[21]
  Activity: Non-Toxic
[22]
  Activity: 2.94%
[23]
  Activity: Active
[24]
  log2FC: >1
[25]
  viability at 0.03 µM: 0.85%
[26]
  Activity: 1.37%
[27]
  CI: <1
[28]
  viability at 0.03 µM: 0.33%
[29]
  Emax: > 95%
[30]
  Activity: Non-Toxic
[31]
  Cmax: 1170 ng/mL
[32]
  Activity: 7.18%
